Measurements as given in patent US7199082B1, “Methods for extending the freshness of cut flowers, ornamental trees, and plant cuttings” (University of North Texas, priority 1999, dated 2007).
Read-outs that look alike come from different tables or passages of the source.

What was measured:
S. chromofuscus PLD = experiment: NAE effect on S. chromofuscus PLD (production of radiolabeled phosphatidic acid); conditions: submicromolar to low micromolar amounts (FIG. 6)
carnations = experiment: Appearance of carnation blooms (brown petals, corolla size); format: in vivo; conditions: after 14 days
Procedure: In related studies, the appearance of visible signs of senescence (brown petals) and size of the carnation corolla were evaluated at different concentrations of NAE12:0 (Table 4).

long-stem pink roses = experiment: Appearance of long-stem pink roses; format: in vivo, rose; parameters: key to Roses appearance (mark): *: Best Appearance; conditions: after 7 days; for Size of Flower Bloom (Cross-Sectional Width at Tip): 2 ml of test solution at day zero, in water
red Gerber daisy = experiment: Days before wilting and petal collapse, random blind comparison
white carnation = experiment: Stem wilt of cut carnations (angle of declination at nodes below flower head); format: in vivo; conditions: for Angle of bend of stem, 2nd Node Below Flower / Angle of bend of stem, 3rd Node Below Flower: after 14 days, single stems separated by /
Procedure: Because NAE inhibited PLD cc activity in vitro, and because PLD activity has been associated with cellular damage in senescing plant tissues, the effect of NAE-containing solutions was tested as senescence-delaying agents for cut flowers. Several parameters were examined with carnations, stem wilt, and flower cross-sectional width and appearance. For stem wilt, the angle of declination at the second and third nodes from the flower head was measured from photographs taken at 14 days after treatments (Table 3). Flowers were either dipped in agar, or not, then dipped into water or NAE 12:0 at 0.1 mM. The larger the angle reported, the greater the wilt or bend of the stem.

cabbage PLD α = cabbage PLD α (Brassica oleracea var. capitata, UniProt P55939); experiment: NAE inhibition of highly purified cabbage PLD α; conditions: for remaining activity at 1 µM: read-out: cabbage PLD activity, % of the control; for inhibition of cabbage PLD α: submicromolar to low micromolar amounts (FIG. 6)
Sequence of cabbage PLD α (P55939 37-812): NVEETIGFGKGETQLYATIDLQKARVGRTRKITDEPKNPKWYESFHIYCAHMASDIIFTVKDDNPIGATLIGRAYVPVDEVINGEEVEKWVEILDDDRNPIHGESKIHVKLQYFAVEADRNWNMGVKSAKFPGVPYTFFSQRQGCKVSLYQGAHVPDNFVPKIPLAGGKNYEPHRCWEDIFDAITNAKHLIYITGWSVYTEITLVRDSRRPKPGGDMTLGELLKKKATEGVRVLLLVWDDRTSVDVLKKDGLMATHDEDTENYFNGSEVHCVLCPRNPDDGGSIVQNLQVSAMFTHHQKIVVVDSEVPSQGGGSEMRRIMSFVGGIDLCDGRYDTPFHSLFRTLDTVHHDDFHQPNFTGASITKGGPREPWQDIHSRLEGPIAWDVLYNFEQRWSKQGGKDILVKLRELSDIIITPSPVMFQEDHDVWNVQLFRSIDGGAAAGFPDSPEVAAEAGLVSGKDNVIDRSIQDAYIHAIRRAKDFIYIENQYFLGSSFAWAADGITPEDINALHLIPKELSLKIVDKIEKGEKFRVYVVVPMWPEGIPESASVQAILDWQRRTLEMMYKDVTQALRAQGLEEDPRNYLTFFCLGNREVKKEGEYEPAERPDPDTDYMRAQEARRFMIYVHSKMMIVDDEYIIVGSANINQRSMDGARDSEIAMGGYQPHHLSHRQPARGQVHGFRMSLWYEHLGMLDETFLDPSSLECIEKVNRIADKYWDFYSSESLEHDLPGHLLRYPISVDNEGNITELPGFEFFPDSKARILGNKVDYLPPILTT

castor bean PLD α = castor bean PLD α (Ricinus communis, UniProt Q41142); experiment: biochemical; format: biochemical
Sequence of castor bean PLD α (Q41142 31-808 limits assumed): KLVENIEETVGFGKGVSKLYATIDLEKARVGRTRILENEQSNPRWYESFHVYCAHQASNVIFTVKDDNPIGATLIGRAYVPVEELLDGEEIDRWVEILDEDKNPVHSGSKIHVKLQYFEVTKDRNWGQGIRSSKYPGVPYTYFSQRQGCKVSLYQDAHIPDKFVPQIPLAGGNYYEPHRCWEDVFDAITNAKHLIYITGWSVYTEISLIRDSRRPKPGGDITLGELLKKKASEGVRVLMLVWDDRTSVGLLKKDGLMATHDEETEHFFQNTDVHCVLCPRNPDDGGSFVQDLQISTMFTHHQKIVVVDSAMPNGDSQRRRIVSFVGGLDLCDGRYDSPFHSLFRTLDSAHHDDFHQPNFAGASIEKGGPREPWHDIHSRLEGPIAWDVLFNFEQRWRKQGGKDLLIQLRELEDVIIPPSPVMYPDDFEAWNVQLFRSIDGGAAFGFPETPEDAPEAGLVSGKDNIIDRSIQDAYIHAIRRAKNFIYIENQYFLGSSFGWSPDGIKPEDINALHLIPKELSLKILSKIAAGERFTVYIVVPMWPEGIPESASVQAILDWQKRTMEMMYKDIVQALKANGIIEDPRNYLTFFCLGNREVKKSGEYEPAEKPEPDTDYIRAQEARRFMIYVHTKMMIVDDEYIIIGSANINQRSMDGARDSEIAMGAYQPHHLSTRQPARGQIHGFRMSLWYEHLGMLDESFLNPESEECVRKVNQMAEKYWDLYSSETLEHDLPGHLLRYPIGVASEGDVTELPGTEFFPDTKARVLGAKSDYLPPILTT

PLD = conditions: Ryu et al., 1997; cited from earlier work
[1] = Solubility of NAEs and NAE formulations in aqueous solutions; format: physicochemical; conditions: longer acyl chain NAEs in the formulations
[2] = agar-dipped stem in 0.1 mM NAE 12:0 (n = 2)

CCCCCCCCCCCC(=O)NCCO [NAE12:0, N-lauroylethanolamine]
inhibition of S. chromofuscus PLD (S. chromofuscus PLD): but not of S. chromofuscus PLD | Size of Flower Bloom (Cross-Sectional Width) (carnations; 0.0004 mM): 2.6 cm | Size of Flower Bloom (Cross-Sectional Width) (carnations; 0.004 mM): 3.0 cm | visible signs of flower senescence (carnations; 0.04 mM): little evidence of flower senescence | Size of Flower Bloom (Cross-Sectional Width) (carnations; 0.040 mM): 3.3 cm | Size of Flower Bloom (Cross-Sectional Width) (carnations; 0.4 mM): 3.1 cm | Size of Flower Bloom (Cross-Sectional Width at Tip) (long-stem pink roses; 0.0004 mM): 1.0 cm | Size of Flower Bloom (Cross-Sectional Width at Tip) (long-stem pink roses; 0.004 mM): 2.3 cm | Roses appearance (mark) (long-stem pink roses; 0.004 mM): * | Size of Flower Bloom (Cross-Sectional Width at Tip) (long-stem pink roses; 0.04 mM): 1.8 cm | Roses appearance (mark) (long-stem pink roses; 0.04 mM): * | Size of Flower Bloom (Cross-Sectional Width at Tip) (long-stem pink roses; 0.4 mM): 1.8 cm | Roses appearance (long-stem pink roses; cell spans the NAE columns 0.0004 mM to 0.4 mM): NICE APPEARANCE | prevention of petal collapse versus water or Aquaplus (red Gerber daisy; 0.2 mM, blind comparison): far superior in preventing petal collapse | Number of Days Before Wilting (red Gerber daisy; NAE 12:0 0.2 mM aqueous solution, Aquaplus dissolved in water according to manufacturer's instructions): 12 days | freshness of carnation stems (white carnation; 0.1 mM, 14 days after treatments): provided extended freshness to carnation stems | Angle of bend of stem, 2nd Node Below Flower (white carnation; NAE 12:0 only 0.1 mM (n = 3)): 8/16/12 | Angle of bend of stem, 3rd Node Below Flower (white carnation; NAE 12:0 only 0.1 mM (n = 3)): 8/12/11 | Angle of bend of stem, 2nd Node Below Flower (white carnation; [2]): 27/42 | Angle of bend of stem, 3rd Node Below Flower (white carnation; [2]): 31/13 | remaining activity at 1 µM (cabbage PLD α): 37% | inhibition of cabbage PLD α (cabbage PLD α): effective inhibitors | IC50 (castor bean PLD α): 0.13 µM | castor bean PLD α activity (castor bean PLD α): no activity

CCCCCCCCCCCCCC(=O)O [myristic acid, reference compound]
cabbage PLD activity (cabbage PLD α; in the presence of 10 μM): unchanged

CCCCCCCCCCCCCC(=O)NCCO [NAE14:0, N-myristoylethanolamine]
inhibition of S. chromofuscus PLD (S. chromofuscus PLD): but not of S. chromofuscus PLD | apparent Vmax (cabbage PLD α; in the presence of 0.01 μM NAE14:0): 11.1 μmol min^−1 mg^−1 protein | type of inhibition (cabbage PLD α; increasing substrate concentration (PC), FIG. 7): noncompetitive inhibition | remaining activity at 1 µM (cabbage PLD α): 22% | inhibition of cabbage PLD α (cabbage PLD α): effective inhibitors | IC50 (castor bean PLD α): 0.1 µM | castor bean PLD α activity (castor bean PLD α): no activity | type of inhibition (castor bean PLD α): noncompetitive binding

CC/C=C\C/C=C\C/C=C\CCCCCCCC(=O)NCCO [NAE18:3, N-linolenoylethanolamine]
IC50 (castor bean PLD α; read-out: IC50 Values): 80 µM

CCCCC/C=C\C/C=C\CCCCCCCC(=O)NCCO [NAE18:2, N-linoleoylethanolamine]
IC50 (castor bean PLD α): 30 µM

NCCO [ethanolamine]
inhibitory effect on PLD (PLD): no inhibitory effect

CCCCCCCCCCCCCCCCCCCC(=O)NCCO [NAE20:0, N-arachidoylethanolamine]
solubility in water [1]: limited solubility in water

CCCCCCCCCCCCCCCCCC(=O)NCCO [NAE18:0, N-stearoylethanolamine]
solubility in water [1]: limited solubility in water | IC50 (castor bean PLD α): 10 µM

CCCCCCCCCCCCCCCC(=O)NCCO [NAE16:0, N-palmitoylethanolamine]
solubility in water [1]: limited solubility in water | IC50 (castor bean PLD α): 5 µM
